{"source": "PubChem BioAssay AID1745844", "about": "(Carcinogenic Potency Database (CPDB), 2022)", "test_system": "rodent lifetime carcinogenesis bioassay, tumor incidence TD50", "experiment": "chronic cancer bioassays in animals – CPDB, compiled studies (AID 1745844)", "settings": "in drinking water", "note": "The source made the active and inactive calls. No rule for the calls is given here."}
{"compound": "CN(N)C=O", "values": [{"measurement": "TD50", "setting": "hamster, strain Syrian Golden, females, site: all sites, lesion: histiocytoma, malignant, dosed 102 weeks, study length 102 weeks", "value": 4.71, "unit": "mg/kg/day"}, {"measurement": "TD50", "setting": "hamster, strain Syrian Golden, females, site: any site (literature study), lesion: several types, types named in the paper, dosed 102 weeks, study length 102 weeks", "value": 6.04, "unit": "mg/kg/day"}, {"measurement": "TD50", "setting": "hamster, strain Syrian Golden, females, site: gall bladder, lesion: several types, types named in the paper, dosed 102 weeks, study length 102 weeks", "value": 29.1, "unit": "mg/kg/day"}, {"measurement": "TD50", "setting": "hamster, strain Syrian Golden, females, site: liver, lesion: hepatoma, dosed 102 weeks, study length 102 weeks", "value": 28.3, "unit": "mg/kg/day"}, {"measurement": "TD50", "setting": "hamster, strain Syrian Golden, females, site: liver, lesion: liver-cell carcinoma, dosed 102 weeks, study length 102 weeks", "value": 25.1, "unit": "mg/kg/day"}, {"measurement": "TD50", "setting": "hamster, strain Syrian Golden, females, site: liver, lesion: several types, types named in the paper, dosed 102 weeks, study length 102 weeks", "value": 11.3, "unit": "mg/kg/day"}, {"measurement": "TD50", "setting": "hamster, strain Syrian Golden, males, site: all sites, lesion: histiocytoma, malignant, dosed 102 weeks, study length 102 weeks", "value": 12.7, "unit": "mg/kg/day"}, {"measurement": "TD50", "setting": "hamster, strain Syrian Golden, males, site: any site (literature study), lesion: several types, types named in the paper, dosed 102 weeks, study length 102 weeks", "value": 4.89, "unit": "mg/kg/day"}, {"measurement": "TD50", "setting": "hamster, strain Syrian Golden, males, site: bile duct, lesion: several types, types named in the paper, dosed 102 weeks, study length 102 weeks", "value": 19.7, "unit": "mg/kg/day"}, {"measurement": "TD50", "setting": "hamster, strain Syrian Golden, males, site: gall bladder, lesion: papillary adenoma, dosed 102 weeks, study length 102 weeks", "value": 42.5, "unit": "mg/kg/day"}, {"measurement": "TD50", "setting": "hamster, strain Syrian Golden, males, site: gall bladder, lesion: several types, types named in the paper, dosed 102 weeks, study length 102 weeks", "value": 25.3, "unit": "mg/kg/day"}, {"measurement": "TD50", "setting": "hamster, strain Syrian Golden, males, site: liver, lesion: hepatoma, dosed 102 weeks, study length 102 weeks", "value": 13.3, "unit": "mg/kg/day"}, {"measurement": "TD50", "setting": "hamster, strain Syrian Golden, males, site: liver, lesion: liver-cell carcinoma, dosed 102 weeks, study length 102 weeks", "value": 30, "unit": "mg/kg/day"}, {"measurement": "TD50", "setting": "hamster, strain Syrian Golden, males, site: liver, lesion: several types, types named in the paper, dosed 102 weeks, study length 102 weeks", "value": 7.55, "unit": "mg/kg/day"}, {"measurement": "TD50", "setting": "mouse, strain Swiss albino, females, site: blood vessels, lesion: several types, types named in the paper, dosed 92 weeks, study length 92 weeks", "value": 12.2, "unit": "mg/kg/day"}, {"measurement": "TD50", "setting": "mouse, strain Swiss albino, females, site: blood vessels, lesion: several types, types named in the paper, dosed 99 weeks, study length 100 weeks", "value": 6.04, "unit": "mg/kg/day"}, {"measurement": "TD50", "setting": "mouse, strain Swiss albino, females, site: gall bladder, lesion: adenoma, dosed 65 weeks, study length 73 weeks", "value": 31.5, "unit": "mg/kg/day"}, {"measurement": "TD50", "setting": "mouse, strain Swiss albino, females, site: gall bladder, lesion: adenoma, dosed 92 weeks, study length 92 weeks", "value": 39.7, "unit": "mg/kg/day"}, {"measurement": "TD50", "setting": "mouse, strain Swiss albino, females, site: gall bladder, lesion: several types, types named in the paper, dosed 92 weeks, study length 92 weeks", "value": 31.3, "unit": "mg/kg/day"}, {"measurement": "TD50", "setting": "mouse, strain Swiss albino, females, site: gall bladder, lesion: several types, types named in the paper, dosed 99 weeks, study length 100 weeks", "value": 57.9, "unit": "mg/kg/day"}, {"measurement": "TD50", "setting": "mouse, strain Swiss albino, females, site: liver, lesion: angioma, dosed 97 weeks, study length 102 weeks", "value": "23.8 mg/kg/day (inactive)"}, {"measurement": "TD50", "setting": "mouse, strain Swiss albino, females, site: liver, lesion: hepatoma, benign, dosed 92 weeks, study length 92 weeks", "value": 17.5, "unit": "mg/kg/day"}, {"measurement": "TD50", "setting": "mouse, strain Swiss albino, females, site: liver, lesion: hepatoma, benign, dosed 99 weeks, study length 100 weeks", "value": 24.7, "unit": "mg/kg/day"}, {"measurement": "TD50", "setting": "mouse, strain Swiss albino, females, site: liver, lesion: hepatoma, dosed 65 weeks, study length 73 weeks", "value": 19.5, "unit": "mg/kg/day"}, {"measurement": "TD50", "setting": "mouse, strain Swiss albino, females, site: liver, lesion: hepatoma, dosed 97 weeks, study length 102 weeks", "value": "9.23 mg/kg/day (inactive)"}, {"measurement": "TD50", "setting": "mouse, strain Swiss albino, females, site: liver, lesion: liver-cell carcinoma, dosed 65 weeks, study length 73 weeks", "value": 19.9, "unit": "mg/kg/day"}, {"measurement": "TD50", "setting": "mouse, strain Swiss albino, females, site: liver, lesion: liver-cell carcinoma, dosed 92 weeks, study length 92 weeks", "value": 22.4, "unit": "mg/kg/day"}, {"measurement": "TD50", "setting": "mouse, strain Swiss albino, females, site: liver, lesion: several types, types named in the paper, dosed 65 weeks, study length 73 weeks", "value": 10.4, "unit": "mg/kg/day"}, {"measurement": "TD50", "setting": "mouse, strain Swiss albino, females, site: liver, lesion: several types, types named in the paper, dosed 92 weeks, study length 92 weeks", "value": 8.66, "unit": "mg/kg/day"}, {"measurement": "TD50", "setting": "mouse, strain Swiss albino, females, site: lung, lesion: adenocarcinoma, dosed 97 weeks, study length 102 weeks", "value": 1.12, "unit": "mg/kg/day"}, {"measurement": "TD50", "setting": "mouse, strain Swiss albino, females, site: lung, lesion: adenoma, dosed 97 weeks, study length 102 weeks", "value": 1.5, "unit": "mg/kg/day"}, {"measurement": "TD50", "setting": "mouse, strain Swiss albino, females, site: lung, lesion: several types, types named in the paper, dosed 65 weeks, study length 73 weeks", "value": 6.44, "unit": "mg/kg/day"}, {"measurement": "TD50", "setting": "mouse, strain Swiss albino, females, site: lung, lesion: several types, types named in the paper, dosed 92 weeks, study length 92 weeks", "value": 2.16, "unit": "mg/kg/day"}, {"measurement": "TD50", "setting": "mouse, strain Swiss albino, females, site: lung, lesion: several types, types named in the paper, dosed 97 weeks, study length 102 weeks", "value": 0.745, "unit": "mg/kg/day"}, {"measurement": "TD50", "setting": "mouse, strain Swiss albino, females, site: lung, lesion: several types, types named in the paper, dosed 99 weeks, study length 100 weeks", "value": 0.921, "unit": "mg/kg/day"}, {"measurement": "TD50", "setting": "mouse, strain Swiss albino, males, site: bile duct, lesion: cholangioma, dosed 82 weeks, study length 82 weeks", "value": 12.4, "unit": "mg/kg/day"}, {"measurement": "TD50", "setting": "mouse, strain Swiss albino, males, site: bile duct, lesion: several types, types named in the paper, dosed 65 weeks, study length 72 weeks", "value": 36.2, "unit": "mg/kg/day"}, {"measurement": "TD50", "setting": "mouse, strain Swiss albino, males, site: blood vessels, lesion: several types, types named in the paper, dosed 96 weeks, study length 100 weeks", "value": 3.47, "unit": "mg/kg/day"}, {"measurement": "TD50", "setting": "mouse, strain Swiss albino, males, site: forestomach, lesion: squamous-cell papilloma, dosed 97 weeks, study length 102 weeks", "value": "11.2 mg/kg/day (inactive)"}, {"measurement": "TD50", "setting": "mouse, strain Swiss albino, males, site: gall bladder, lesion: adenoma, dosed 65 weeks, study length 72 weeks", "value": 38, "unit": "mg/kg/day"}, {"measurement": "TD50", "setting": "mouse, strain Swiss albino, males, site: gall bladder, lesion: adenoma, dosed 82 weeks, study length 82 weeks", "value": 15.2, "unit": "mg/kg/day"}, {"measurement": "TD50", "setting": "mouse, strain Swiss albino, males, site: gall bladder, lesion: adenoma, dosed 96 weeks, study length 100 weeks", "value": 9.88, "unit": "mg/kg/day"}, {"measurement": "TD50", "setting": "mouse, strain Swiss albino, males, site: gall bladder, lesion: several types, types named in the paper, dosed 96 weeks, study length 100 weeks", "value": 9.1, "unit": "mg/kg/day"}, {"measurement": "TD50", "setting": "mouse, strain Swiss albino, males, site: liver, lesion: several types, types named in the paper, dosed 65 weeks, study length 72 weeks", "value": 16.8, "unit": "mg/kg/day"}, {"measurement": "TD50", "setting": "mouse, strain Swiss albino, males, site: liver, lesion: several types, types named in the paper, dosed 82 weeks, study length 82 weeks", "value": 1.03, "unit": "mg/kg/day"}, {"measurement": "TD50", "setting": "mouse, strain Swiss albino, males, site: liver, lesion: several types, types named in the paper, dosed 96 weeks, study length 100 weeks", "value": 5.47, "unit": "mg/kg/day"}, {"measurement": "TD50", "setting": "mouse, strain Swiss albino, males, site: lung, lesion: adenocarcinoma, dosed 97 weeks, study length 102 weeks", "value": 2.48, "unit": "mg/kg/day"}, {"measurement": "TD50", "setting": "mouse, strain Swiss albino, males, site: lung, lesion: adenoma, dosed 97 weeks, study length 102 weeks", "value": 1.3, "unit": "mg/kg/day"}, {"measurement": "TD50", "setting": "mouse, strain Swiss albino, males, site: lung, lesion: several types, types named in the paper, dosed 65 weeks, study length 72 weeks", "value": 14.2, "unit": "mg/kg/day"}, {"measurement": "TD50", "setting": "mouse, strain Swiss albino, males, site: lung, lesion: several types, types named in the paper, dosed 82 weeks, study length 82 weeks", "value": 1.87, "unit": "mg/kg/day"}, {"measurement": "TD50", "setting": "mouse, strain Swiss albino, males, site: lung, lesion: several types, types named in the paper, dosed 96 weeks, study length 100 weeks", "value": 1.72, "unit": "mg/kg/day"}, {"measurement": "TD50", "setting": "mouse, strain Swiss albino, males, site: lung, lesion: several types, types named in the paper, dosed 97 weeks, study length 102 weeks", "value": 0.865, "unit": "mg/kg/day"}, {"measurement": "TD50", "setting": "mouse, strain Swiss albino, males, site: seminal vesicle, lesion: adenoma, dosed 82 weeks, study length 82 weeks", "value": "20.7 mg/kg/day (inactive)"}, {"measurement": "TD50", "setting": "mouse, strain Swiss albino, males, site: stomach, glandular, lesion: polypoid adenoma, dosed 97 weeks, study length 102 weeks", "value": "3.43 mg/kg/day (inactive)"}, {"measurement": "TD50", "setting": "mouse, strain Swiss albino, males, site: subcutaneous tissue, lesion: fibrosarcoma, dosed 97 weeks, study length 102 weeks", "value": "2.6 mg/kg/day (inactive)"}]}
